SMILES strings stand for the structures.

A short description of the first data set: solvent given as SMILES. Particulars: in CO.
On to `c1cc2c3c(cccc3c1)NC(c1ccc3ccc4cccc5ccc1c3c45)N2`, for which the emission maximum was found to be 450 nm.
`O=C1Nc2ccccc2/C1=C/C(=O)c1ccccc1`: the emission maximum was found to be 412 nm.
The same measure, in the same setting: then `CCNc1cc2c(cc1C)C(c1ccccc1C(=O)O)=C1CCCC(/C=C/C3=[N+](C)c4ccc5ccccc5c4C3(C)C)=C1O2`, with 744 nm.
On the same count and under the same terms, then `CC1=C(c2cccs2)C(C)=[N+]2C1=C(c1ccc(O)cc1)c1c(C)c(-c3cccs3)c(C)n1[B-]2(F)F`, with 602 nm.

The same data set, now with this note: in CS(C)=O.
`C(/C=C/Nc1cccc2ccccc12)=[NH+]c1cccc2ccccc12` came in with an emission maximum of 527 nm.
Same read-out and setting: as for `c1cc2c3c(cccc3c1)NC(c1ccc3ccc4cccc5ccc1c3c45)N2`, the figure is 420 nm.

Staying with this data set, now noted: in Cc1ccccc1.
For `CCCCCCc1ccc2c3c(ccc2c1)O[B-](c1ccccc1)(c1ccccc1)[N+](c1ccc([N+]2=Cc4c(ccc5cc(CCCCCC)ccc45)O[B-]2(c2ccccc2)c2ccccc2)cc1)=C3`, the emission maximum amounted to 569 nm.
`CC(C)(C)c1ccc(-c2nnc(-c3c(-n4c5ccccc5c5ccccc54)c(-n4c5ccccc5c5ccccc54)c(-n4c5ccccc5c5ccccc54)c(-n4c5ccccc5c5ccccc54)c3-n3c4ccccc4c4ccccc43)o2)cc1` showed an emission maximum of 482 nm.
In turn, `CN(C)c1ccc(/C=C/C=C/c2nc3ccccc3s2)cc1` registered an emission maximum of 500 nm.
Molecule `CCCC1=Cc2nc1ccc1[nH]c(cc1CCC)c1nc(c(OC)cc3[nH]c2cc3CCC)C(CCC)=C1` displayed an emission maximum of 688 nm.
Same read-out and setting: then `FC(F)(F)c1cc2n(n1)[B-]1(c3ccccc3Oc3ccccc31)[n+]1ccc3ccccc3c1-2`, with 517 nm.
As to `Cc1ccc2c(c1)C1(c3ccccc3-c3ccccc31)c1cc(C)ccc1N2c1ccc2c(c1)Sc1ccccc1P2(=S)c1ccccc1` (stereo not given), the emission maximum turned out to be 454.61 nm.
Still for that read-out and setting: then `c1cc2c3c(cccc3c1)NC(c1ccc3ccc4cccc5ccc1c3c45)N2`, with 502 nm.
In turn, `COC(=O)/C(C#N)=c1\s/c(=c2/s/c(=C(/C#N)C(=O)OC)c3cc(-c4ccc5c(c4)C(C)(C)c4ccccc4-5)sc23)c2sc(-c3ccc4c(c3)C(C)(C)c3ccccc3-4)cc12` gave an emission maximum of 682 nm.
The same measure, in the same setting: as for `Fc1cc(-c2nc(-c3ccccc3)nc(-c3ccccc3)n2)ccc1-n1c2ccccc2c2c3c(ccc21)C1(c2ccccc2-c2ccccc21)c1ccccc1-3`, the figure is 448 nm; as for `COc1ccc2c(c1)[nH]c1c3[nH]c4cc(OC)ccc4c3c3nsnc3c21`, 501 nm; as for `CC1=CC(C)=[N+]2C1=C(c1ccc(C(=O)OC3C[C@@H]4CC[C@]3(C)C4(C)C)cc1)c1c(C)cc(C)n1[B-]2(F)F` (stereo not given in full), 518 nm.
Same read-out and setting: as for `CC1(C)c2ccccc2N(c2ccccc2)c2ccc(S(=O)(=O)c3ccc4c(c3)C(C)(C)c3ccccc3N4c3ccccc3)cc21`, the figure is 370.45 nm.
The same measure, in the same setting: then `CC1=C(c2cccs2)C(C)=[N+]2C1=C(c1ccc(O)cc1)c1c(C)c(-c3cccs3)c(C)n1[B-]2(F)F`, with 604 nm; and `c1ccc(-c2nnc(-c3ccc(N4c5ccccc5Oc5ccccc54)cc3)o2)cc1`, with 495 nm; and `CN(C)c1ccc(-c2cc(-c3ccc(C#N)cc3)nn2C)cc1`, with 410 nm.
`COc1ccc(C2=[N+]3C(=Nc4c(-c5cc(OC)c(OC)c(OC)c5Br)c(-c5ccc(C(C)(C)C)cc5)c(-c5ccc(OC)cc5)n4[B-]3(F)F)C(c3cc(OC)c(OC)c(OC)c3Br)=C2c2ccc(C(C)(C)C)cc2)cc1` came in with an emission maximum of 740 nm.
On the same count and under the same terms, then `CSC1=C2C=C(c3cc4n(c3)[B-](F)(F)[N+]3=CC=CC3=C4c3c(C)cc(C)cc3C)C(C)=[N+]2[B-](F)(F)n2c(C)ccc21`, with 663 nm.

Still in this data set, the particulars now being: in ClC(Cl)(Cl)Cl.
For the molecule `CN(C)c1ccc(/C=C/C=C/c2nc3ccccc3s2)cc1`, the emission maximum was 499 nm.

The same data set, now with this note: in ClC(Cl)Cl.
As for `Cc1cc(-c2ccccc2)nc2c1ccc1nc(-c3ccccc3)cn12`, the emission maximum is 448 nm.
On to `CCCCCCN1C(=O)c2cccc3cc(/N=C\c4c[nH]c5c4ccc4ccccc45)cc(c23)C1=O`, for which the emission maximum is on record as 501 nm.
Still for that read-out and setting: then `CN(C)c1ccc(/C=C/C=C/c2nc3ccccc3s2)cc1`, with 526 nm; and `Fc1cc(-c2nc(-c3ccccc3)nc(-c3ccccc3)n2)ccc1-n1c2ccccc2c2c3c(ccc21)C1(c2ccccc2-c2ccccc21)c1ccccc1-3`, with 500.23 nm.
As for `CCNc1cc2c(cc1C)C(c1ccccc1C(=O)O)=C1CCCC(/C=C/C3=[N+](C)c4ccc5ccccc5c4C3(C)C)=C1O2`, the emission maximum is listed as 748 nm.

The data set is the same for the next values; noted with them: in ClCCl.
In turn, `Cc1cc(-c2ccccc2)nc2c1ccc1nc(-c3ccccc3)cn12` displayed an emission maximum of 450 nm.
Still for that read-out and setting: as for `CCCCCCc1ccc2c3c(ccc2c1)O[B-](c1ccccc1)(c1ccccc1)[N+](c1ccc([N+]2=Cc4c(ccc5cc(CCCCCC)ccc45)O[B-]2(c2ccccc2)c2ccccc2)cc1)=C3`, the figure is 568 nm; as for `CCCCCCN1C(=O)c2cccc3c(-c4ccc(-c5cc(-c6ccc(C)cc6)nn5-c5ccccc5)s4)ccc(c23)C1=O`, 519 nm.
The same measure, in the same setting: then `Cc1cc(=O)cc(-c2ccc(-c3nc4ccccn4c3NC3CCCCC3)cc2)o1`, with 500 nm; and `CN(C)c1ccc(/C=C/C=C/c2nc3ccccc3s2)cc1`, with 533 nm; and `N#CC(C#N)=Cc1ccc2c(c1)c1cc(C=C(C#N)C#N)ccc1n2-c1cccc2ccccc12`, with 453 nm.
Still for that read-out and setting: then `FC(F)(F)c1cc2n(n1)[B-]1(c3ccccc3Oc3ccccc31)[n+]1ccc3ccccc3c1-2`, with 543 nm; and `Oc1ccc(-c2ccco2)cc1-c1nc2ccccc2s1`, with 406 nm; and `CCCCN(CCCC)c1ccc(C#Cc2cc(C#Cc3ccc(C#N)cc3)c(C#Cc3ccc(N(CCCC)CCCC)cc3)cc2C#Cc2ccc(C#N)cc2)cc1`, with 563 nm.
As to `CC(C)CCCC(C)CCN1C(=O)c2ccc3c(-c4ccccc4)c4c5ccc6c7c(ccc(c(-c8ccccc8)c4c4ccc(c2c34)C1=O)c75)C(=O)N(CCC(C)CCCC(C)C)C6=O` (stereo not given), the emission maximum turned out to be 704 nm.
On the same count and under the same terms, then `CCn1c2ccccc2c2c(N(c3ccccc3)c3ccccc3)cccc21`, with 418 nm.
`COc1ccc2c(c1)[nH]c1c3[nH]c4cc(OC)ccc4c3c3nsnc3c21` registered an emission maximum of 540 nm.
Same read-out and setting: as for `O=C1Nc2ccccc2/C1=C/C(=O)c1ccccc1`, the figure is 398 nm.
`CCCCC(CC)COc1ccc2nc(-c3ccc(-c4c(C)noc4C)s3)sc2c1` (stereo not given) registered an emission maximum of 415 nm.
Molecule `CC1=C(c2cccs2)C(C)=[N+]2C1=C(c1ccc(O)cc1)c1c(C)c(-c3cccs3)c(C)n1[B-]2(F)F` showed an emission maximum of 605 nm.
Molecule `CN(C)c1ccc(-c2cc(-c3ccc(C#N)cc3)nn2C)cc1` displayed an emission maximum of 499 nm.

Staying with this data set, now noted: in O.
Molecule `Oc1ccc(-c2ccco2)cc1-c1nc2ccccc2s1` yielded an emission maximum of 577 nm.
With `O=C1Nc2ccccc2/C1=C/C(=O)c1ccccc1`, the emission maximum is 424 nm.
Same read-out and setting: then `CCOC(=O)c1c(CSc2ccccc2)n(C)c2cc(Br)c(O)c(CN(C)C)c12`, with 350 nm.

The data set is the same for the next values; noted with them: in O=P(c1ccccc1)(c1ccccc1)c1ccccc1Oc1ccccc1P(=O)(c1ccccc1)c1ccccc1.
`CC1(C)c2ccccc2N(c2ccccc2)c2ccc(S(=O)(=O)c3ccc4c(c3)C(C)(C)c3ccccc3N4c3ccccc3)cc21` came in with an emission maximum of 381 nm.

The same data set, now with this note: in OCC(O)CO.
Turning to `CN(C)c1ccc(/C=C/C=C/c2nc3ccccc3s2)cc1`, the emission maximum turned out to be 583 nm.

The data set is the same for the next values; noted with them: in OCCO.
The molecule `CN(C)c1ccc(/C=C/C=C/c2nc3ccccc3s2)cc1` displayed an emission maximum of 583 nm.

The same data set, now with this note: in c1ccc(-n2c(-c3c(-n4c5ccccc5c5ccccc54)cccc3-n3c4ccccc4c4ccccc43)nc3ccccc32)cc1.
In the case of `c1ccc(-c2nnc(-c3ccc(N4c5ccccc5Oc5ccccc54)cc3)o2)cc1`, the emission maximum is recorded as 498 nm.

Staying with this data set, now noted: in c1ccccc1.
Molecule `Cc1cc(-c2ccccc2)nc2c1ccc1nc(-c3ccccc3)cn12` showed an emission maximum of 451 nm.
Consider `CN(C)c1ccc(/C=C/C=C/c2nc3ccccc3s2)cc1`, for which the emission maximum is given as 504 nm.
Same read-out and setting: then `CCCCN(CCCC)c1ccc(C#Cc2cc(C#Cc3ccc(C#N)cc3)c(C#Cc3ccc(N(CCCC)CCCC)cc3)cc2C#Cc2ccc(C#N)cc2)cc1`, with 530 nm.
